Source: patent US20220257777A1, “HSP90-BINDING CONJUGATES AND COMBINATION THERAPIES THEREOF” (TVA (ABC), LLC, priority 2019, published 2022)
Where two headings read alike, the source gives them in different places. Marks after values point to notes of the source that are not given here.

What was measured:
[1] = Phase 1/2a study, plasma pharmacokinetics of Conjugate 1 and SN-38; assay type: in vivo, human
Description: (§1) In a Phase 1/2a study of Conjugate 1, patients received weekly Conjugate 1 treatment for 3 of 4 weeks in a 28-day cycle. The patients have histologically or cytologically confirmed advanced solid tumors. Their tumor types included anus, breast, cholangiocarcinoma, colon, Ewing sarcoma, liver, lung, neuroendocrine (unknown primary), ovary, pancreas, salivary gland, and sarcoma. They have received one or more prior lines of anticancer therapy. The patients received flat dosings or dosings based on body surface area (BSA). The doses included 30 mg, 60 mg, 120 mg, 240 mg, 360 mg, 175 mg/m^2, and 200 mg/m^2. […] BSA-based dosing will be used for future studies.
To study pharmacokinetics (PK) profile, multiple plasma samples were collected to measure Conjugate 1 and SN-38 concentrations. […] Elimination half-life was ˜10 hours across all dose ranges. Free SN-38 levels were generally low. AUC is <2% of the conjugate (Conjugate 1) AUC.

[2] = Levels of Conjugate 1 and SN-38 in patient tumor biopsy and plasma at 24 h; assay type: in vivo, human
Method: A pancreatic cancer patient received Conjugate 1 at a dose of 150 mg/m^2 and underwent a tumor biopsy to determine Conjugate 1 and SN-38 levels in tumor and plasma. Samples were taken 24 h after the second dose of 150 mg/m^2 Conjugate 1 from a liver metastasis.
Conjugate 1 and SN-38 levels in tumor are much higher than the levels in plasma.

[3] = Tumor exposure of Conjugate 1 and SN-38 in H1975 mouse xenograft model at 24 h; assay type: in vivo; details: for SN-38 in tumor at 24 h: H1975 model; for concentration at 24 h: mouse, in vivo
[4] = cited from earlier work; for Ratio of tumor level/plasma level: after Onivyde treatment at 72 h; for Amount in Tumor: patient biopsies after Onivyde treatment at 72 h (13 patients); for Amount in Plasma: patients after Onivyde treatment at 72 h (13 patients)
[5] = Phase 1/2a study, maximum tolerated dose and adverse events; assay type: in vivo, human
Description: as §1
AEs are well-managed with dose modification.

advanced solid tumors = assay: Phase 1/2a study, tumor response; assay type: in vivo, human
Description: as §1
120-360 mg flat dose and 175 mg/m2 BSA dose were associated with stable disease that was maintained for ≥12 weeks.

[6] = system: H1975 (NSCLC) mouse xenograft; assay: Efficacy in H1975 (NSCLC) mouse xenograft model; assay type: in vivo
[7] = patients dosed with Conjugate 1, plasma

Q: For `CCc1c2c(nc3ccc(O)cc13)-c1cc3c(c(=O)n1C2)COC(=O)[C@]3(O)CC` [SN-38, reference compound], which “Free SN-38 AUC as share of the conjugate (Conjugate 1) AUC” value [1, 7] is on record?
A: < 2%

Q: And the “Free SN-38 levels / systemic exposure to free SN-38” value [1, 7]?
A: generally low

Q: And the “Free SN-38 levels / systemic exposure to free SN-38” value ([1]; patients dosed with Conjugate 1, plasma, listed as SN-28)?
A: low

Q: And the “Amount in Plasma” value ([2]; at 24 h, average of 5 patients dosed at 175 mg/m^2 Conjugate 1)?
A: 25.5* nM

Q: And the “Ratio of tumor level/plasma level” value ([2]; at 24 h, tumor at 150 mg/m^2, plasma at 175 mg/m^2 Conjugate 1)?
A: About 3.4

Q: And the “Amount in Tumor” value ([2]; pancreatic cancer patient, liver metastasis biopsy, 24 h after the second dose of 150 mg/m^2 Conjugate 1)?
A: 86.6 nM

Q: What about the “SN-38 in tumor at 24 h” value ([3]; Conjugate 1 50 mg/kg) of the same compound?
A: 98 nM

Q: And the “SN-38 in tumor at 24 h” value ([3]; Conjugate 1 100 mg/kg)?
A: 18.4 nM

Q: What about the “SN-38 in tumor at 24 h” value ([3]; Conjugate 1 150 mg/kg) of the same compound?
A: 221 nM

Q: What about the “Ratio of tumor level/plasma level” value [4] of the same compound?
A: About 4.2

Q: What about the “Amount in Tumor” value [4] of the same compound?
A: 24.5 nM

Q: What about the “Amount in Plasma” value [4] of the same compound?
A: 0.0059 µM

Q: What does the source list for `CCc1c2c(nc3ccc(OC(=O)N4CCC(CCn5ccc6cc(-n7c(O)nnc7-c7cc(C(C)C)c(O)cc7O)ccc65)CC4)cc13)-c1cc3c(c(=O)n1C2)COC(=O)[C@]3(O)CC` [Conjugate 1, (S)-4,11-diethyl-4-hydroxy-3,14-dioxo-3,4,12,14-tetrahydro-1H-pyrano[3′,4′:6,7]indolizino[1,2-b]quinolin-9-yl 4-(2-(5-(3-(2,4-dihydroxy-5-isopropylphenyl)-5-hydroxy-4H-1,2,4-triazol-4-yl)-1H-indol-1-yl)ethyl)piperidine-1-carboxylate]?
A: half-life ([1]; human, in vivo, Elimination half-life): ~10 h; Dose proportionality of PK ([1]; patients, 30 mg to 200 mg/m^2): non-linear PK at lower doses, but greater proportionality was observed at higher doses; Linker stability in circulation ([1]; patients, PK analyses): stable in circulation; Maximum tolerated dose (MTD), monotherapy ([5]; patients with advanced solid tumors, weekly for 3 of 4 weeks in a 28-day cycle): 175 mg/m^2; Most common AEs ([5]; patients, Phase 1): nausea, fatigue, diarrhea, vomiting and alopecia; Overall safety / adverse event profile ([5]; patients, Phase 1): safe and has an expected adverse (AE) event profile; Time stable disease was maintained (advanced solid tumors; 120-360 mg flat dose and 175 mg/m2 BSA dose): ≥ 12 weeks; Patients achieving partial response (PR; reduction of tumor size by 30% or more) (advanced solid tumors; of the 17 patients who received Conjugate 1 treatment): one; SN-38 tumor level relative to SN-38 tumor level of patients who received Onivyde ([2]; human, in vivo, 24 h): about 3.5 fold; concentration at 24 h ([3]; 50 mg/kg): 0.163 µM; concentration at 24 h ([3]; 100 mg/kg): 0.149 µM; concentration at 24 h ([3]; 150 mg/kg): 4.99 µM; Efficacy in the xenograft model ([6]; weekly dose of 150 mg/kg): tumor regression; Efficacy in the xenograft model ([6]; weekly doses of 72 mg/kg and 100 mg/kg): significant efficacy

Q: What does the source list for `CCc1c2c(nc3ccc(OC(=O)N4CCC(N5CCCCC5)CC4)cc13)-c1cc3c(c(=O)n1C2)COC(=O)[C@]3(O)CC` [Irinotecan]?
A: Ratio of tumor level/plasma level [4]: About 0.5; Ratio of tumor level/plasma level ([4]; listed as irinotecan): about ½; Amount in Tumor [4]: 4043 nM; Amount in Plasma [4]: 7.921 µM
